Experiments:
HIF-1α = assay: Expression of HIF-1α protein in cancer cell lines treated with compound (FIGS. 1-4, 29, 30, 32); format: cell-based
Excerpt: (§1) Hypoxic conditions (0.5% O2) were achieved by culturing cells in a hypoxia chamber (HypOxygen H35 HypOxystation) which controls and maintains a stable level of oxygen, carbon dioxide, temperature and humidity.
(§2) Normoxia refers to a regular cell culture condition at 21% oxygen concentration.

[1] = test system: erythropoietin (EPO) mRNA; assay: EPO mRNA expression in HCT116 cells by real-time PCR; format: cell-based; conditions: HCT116, normoxia or hypoxia, indicated durations (FIG. 31)
Experimental: Total RNA was extracted from cells using the RNeasy Mini Kit (Qiagen). cDNA was obtained by reverse transcription with random primers using the SuperScript II First-Strand Synthesis System (Invitrogen). Real-time PCR reactions were performed with SYBR Green Master Mix (Applied Biosystems) using the QuantStudio™ 6 Pro Real-Time PCR System.
as §1, §2
Cells were treated for indicated durations in normoxia or hypoxia. Extracted RNA was analyzed by real-time PCR. M: MG132 (5 μM). Statistic analysis: two-way anova+Dunnett's multiple comparisons test.

VEGF [2] = assay: Luciferase reporter assay, VEGF-HRE::dLUC (HCT116 or SW480 stable cell lines); format: cell-based, human
Experimental: (§3) HCT116 or SW480 cells were transfected using lipofectamine 2000 (Invitrogen, USA) with pGL4.22-VEGF-HRE::dLUC or pGL4.22-PGK1-HRE::dLUC plasmids expressing the luciferase reporter with hypoxia response element (HRE) derived from the human PGK1 promoter or the human VEGF promoter (Walton Z. E. et al., Cell. 2018 Jun. 28; 174(1):72-87). Cells were cultured and selected in 2 μg/mL (for HCT116) or 4 μg/mL (for SW480) puromycin-containing DMEM medium (Cytiva HyClone) after 24 h of transfection. Individual clones were picked and expanded. Verification of the luciferase reporter-bearing cells were performed by measuring the bioluminescence in hypoxia upon addition of the substrate (luciferin) using the IVIS imaging system.
(§4) Luciferase-reporter expressing cells were seeded in 96-well black plates at a density of 2~4×10^4 cells/well. Treatment with compounds were performed on the next day for 6 h under normoxia or hypoxia. After substrate (luciferin) addition, plates were imaged for luminescence intensity in the IVIS imaging system.
as §1, §2

PGK1 = assay: Luciferase reporter assay, PGK1-HRE::dLUC (HCT116 or SW480 stable cell lines); format: cell-based, human; conditions: HCT116 and SW480, normoxia and hypoxia, 6 h (FIGS. 5-24)
Experimental: as §3, §4, §1, §2

VEGF [3] = assay: Expression of VEGF protein in SW480 cells treated with compound (FIG. 4); format: cell-based; conditions: normoxia 6 h (FIG. 4)
Excerpt: as §2

[4] = hypoxia (0.5% O2), FIG. 2: SW480 cells, 6 h
[5] = normoxia (21% O2), FIGS. 1, 3, 4: SW480, RCC4 cells, 6 h

| SMILES | HIF-1α expression (HIF-1α; HCT116, normoxia, 6, 8 or 10 hours (FIG. 29)) | expression of HIF-1α (HIF-1α; HT29 (colorectal cancer) cells, normoxia 6 h (FIG. 30)) | expression of HIF-1α (HIF-1α; PANC1 (pancreatic cancer) cells, normoxia 6 h (FIG. 30)) | expression of HIF-1α (HIF-1α; [4]) | expression of HIF-1α (HIF-1α; [5]) | erythropoietin (EPO) mRNA expression [1] | VEGF upregulation as measured by a luciferase assay, despite incubation with siRNA EIF4E (VEGF [2]; HCT116, hypoxia 6 h, two different eIF4E siRNAs for 48 hours (FIG. 26)) | VEGF upregulation as measured by a luciferase assay, despite incubation with siRNA EIF4E (VEGF [2]; HCT116, normoxia 6 h, two different eIF4E siRNAs for 48 hours (FIG. 25)) | expression of VEGF as measured in a luciferase assay (VEGF [2]; HCT116 and SW480, normoxia and hypoxia, 6 h (FIGS. 5-24)) | VEGF upregulation as measured by a luciferase assay, despite incubation with siRNA EIF4E (VEGF [2]; SW480, hypoxia 6 h, two different eIF4E siRNAs for 48 hours (FIG. 28)) | VEGF upregulation as measured by a luciferase assay, despite incubation with siRNA EIF4E (VEGF [2]; SW480, normoxia 6 h, two different eIF4E siRNAs for 48 hours (FIG. 27)) | expression of PGK1 as measured in a luciferase assay (PGK1) | VEGF expression (VEGF [3]) | HIF-1α expression (HIF-1α; HCT116, hypoxia (FIG. 32)) | HIF-1α expression (HIF-1α; RCC4 renal cell carcinoma cells, normoxia (FIG. 32)) | HIF-1α expression (HIF-1α; SW480, hypoxia (FIG. 32)) | HIF-1α expression (HIF-1α; SW480, normoxia (FIG. 32)) |
| --- | --- | --- | --- | --- | --- | --- | --- | --- | --- | --- | --- | --- | --- | --- | --- | --- | --- |
| O=C(O)c1ccc(N2C(=O)C(=Cc3ccc(-c4ccc([N+](=O)[O-])cc4)o3)C=C2c2ccccc2)cc1 [4E1Rcat] | increases | increases | increases | increase | increase | increases | upregulated | upregulated | increases | upregulated | upregulated | increases | increase | – | – | – | – |
| CCc1ccc(/C=C/C(=O)Nc2ccc(C(C)=O)cc2)o1 [Heclin] | – | – | – | increase | increase | – | – | – | – | – | – | – | increase | – | – | – | – |
| CCOC(=O)c1ccc(N2NC(=O)/C(=C/c3ccc([N+](=O)[O-])o3)C2=O)cc1 [PYR 41] | – | – | – | increase | increase | – | – | – | – | – | – | – | increase | increases | increases | increases | increases |
| CC1=NN(c2ccc(C(=O)O)cc2)C(=O)/C1=C/c1ccc(-c2cc(C)c(C)cc2[N+](=O)[O-])o1 [C 646] | – | – | – | increase | increase | – | – | – | – | – | – | – | increase | – | – | – | – |

Source: patent US20260306440A1, “USE OF SMALL MOLECULES TO INCREASE HYPOXIA INDUCIBLE FACTOR (HIF) ACTIVITY” (BROWN UNIVERSITY, priority 2023, published 2026)
